PubChem BioAssay (NCI)
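Growth conditions: 96-well plates. Treatment: test compound, 48 hours, 5 concentrations. Analysis: linear interpolation between bracketing concentrations; unreached endpoints set to highest concentration. Definition used: TGI = concentration required for complete inhibition of growth.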

system: LOX IMVI melanoma; assay: inhibition of tumour cell growth, NCI panel, 48 h

Compared with CC(C)C1OC23CCCCC2C(C#N)(C#N)C1(C#N)C(=N)O3 (stereo not drawn), O=C(NCCCCCCNC(=O)c1cccc2ccccc12)Nc1cccc2ccccc12 is higher in TGI: 54 µM for the first, over 100 µM for the second.

NC(CCCCP(=O)(O)O)C(=O)O (stereo not drawn) and O=C(CC(=O)Nc1cccc(C(=O)O)c1)Nc1cccc(C(=O)O)c1 cannot be ordered by TGI: over 100 µM for the first, over 100 µM for the second.

system: M14 melanoma; assay: inhibition of tumour cell growth, NCI panel, 48 h

CCC(C)(C)/C(CC(O)(C(F)(F)F)C(F)(F)F)=N\O and NC(CCCCP(=O)(O)O)C(=O)O (stereo not drawn) cannot be ordered by TGI: over 100 µM for the first, over 100 µM for the second.

Cc1cc(C)c(S(=O)(=O)N2CCCN(S(=O)(=O)c3c(C)cc(C)cc3C)OCCCON(S(=O)(=O)c3c(C)cc(C)cc3C)CCCN(S(=O)(=O)c3c(C)cc(C)cc3C)OCCCO2)c(C)c1 and O=C(CC(=O)Nc1cccc(C(=O)O)c1)Nc1cccc(C(=O)O)c1 cannot be ordered by TGI: over 100 µM for the first, over 100 µM for the second.

First: CC(C)C1OC23CCCCC2C(C#N)(C#N)C1(C#N)C(=N)O3 (stereo not drawn)
Second: O=C(NCCCCCCNC(=O)c1cccc2ccccc12)Nc1cccc2ccccc12
The TGI of the first is lower: 29.8 µM for the first, over 100 µM for the second.

system: MALME-3M melanoma; assay: inhibition of tumour cell growth, NCI panel, 48 h

CCC(C)(C)/C(CC(O)(C(F)(F)F)C(F)(F)F)=N\O and Cc1cc(C)c(S(=O)(=O)N2CCCN(S(=O)(=O)c3c(C)cc(C)cc3C)OCCCON(S(=O)(=O)c3c(C)cc(C)cc3C)CCCN(S(=O)(=O)c3c(C)cc(C)cc3C)OCCCO2)c(C)c1 cannot be ordered by TGI: over 100 µM for the first, over 100 µM for the second.

N#CSC#Cc1ccc(C#CSC#N)cc1 and CC(C)C1OC23CCCCC2C(C#N)(C#N)C1(C#N)C(=N)O3 (stereo not drawn) are within 1.5-fold of each other in TGI: 51.9 µM for the first, 39.6 µM for the second.

O=C(NCCCCCCNC(=O)c1cccc2ccccc12)Nc1cccc2ccccc12 was tested, and the TGI was over 100 µM.

system: MCF7 breast; assay: inhibition of tumour cell growth, NCI panel, 48 h

Going from N#CSC#Cc1ccc(C#CSC#N)cc1 to O=C(CC(=O)Nc1cccc(C(=O)O)c1)Nc1cccc(C(=O)O)c1, the TGI rises from 38.6 µM to over 100 µM.

Cc1cc(C)c(S(=O)(=O)N2CCCN(S(=O)(=O)c3c(C)cc(C)cc3C)OCCCON(S(=O)(=O)c3c(C)cc(C)cc3C)CCCN(S(=O)(=O)c3c(C)cc(C)cc3C)OCCCO2)c(C)c1 and O=C(NCCCCCCNC(=O)c1cccc2ccccc12)Nc1cccc2ccccc12 cannot be ordered by TGI: over 100 µM for the first, over 100 µM for the second.

In the case of CC(C)C1OC23CCCCC2C(C#N)(C#N)C1(C#N)C(=N)O3 (stereo not drawn), the TGI is reported as 36.6 µM.

system: MDA-MB-231 breast; assay: inhibition of tumour cell growth, NCI panel, 48 h

CCC(C)(C)/C(CC(O)(C(F)(F)F)C(F)(F)F)=N\O and NC(CCCCP(=O)(O)O)C(=O)O (stereo not drawn) cannot be ordered by TGI: over 100 µM for the first, over 100 µM for the second.

Compared with N#CSC#Cc1ccc(C#CSC#N)cc1, O=C(CC(=O)Nc1cccc(C(=O)O)c1)Nc1cccc(C(=O)O)c1 is higher in TGI: 35.2 µM for the first, over 100 µM for the second.

Cc1cc(C)c(S(=O)(=O)N2CCCN(S(=O)(=O)c3c(C)cc(C)cc3C)OCCCON(S(=O)(=O)c3c(C)cc(C)cc3C)CCCN(S(=O)(=O)c3c(C)cc(C)cc3C)OCCCO2)c(C)c1 and O=C(NCCCCCCNC(=O)c1cccc2ccccc12)Nc1cccc2ccccc12 cannot be ordered by TGI: over 100 µM for the first, over 100 µM for the second.

CC(C)C1OC23CCCCC2C(C#N)(C#N)C1(C#N)C(=N)O3 (stereo not drawn) gave a TGI of 39.7 µM.

system: MDA-MB-435; assay: inhibition of tumour cell growth, NCI panel, 48 h

CCC(C)(C)/C(CC(O)(C(F)(F)F)C(F)(F)F)=N\O and NC(CCCCP(=O)(O)O)C(=O)O (stereo not drawn) cannot be ordered by TGI: over 100 µM for the first, over 100 µM for the second.

Going from N#CSC#Cc1ccc(C#CSC#N)cc1 to O=C(CC(=O)Nc1cccc(C(=O)O)c1)Nc1cccc(C(=O)O)c1, the TGI rises from 45.4 µM to over 100 µM.

Cc1cc(C)c(S(=O)(=O)N2CCCN(S(=O)(=O)c3c(C)cc(C)cc3C)OCCCON(S(=O)(=O)c3c(C)cc(C)cc3C)CCCN(S(=O)(=O)c3c(C)cc(C)cc3C)OCCCO2)c(C)c1 and O=C(NCCCCCCNC(=O)c1cccc2ccccc12)Nc1cccc2ccccc12 cannot be ordered by TGI: over 100 µM for the first, over 100 µM for the second.

With CC(C)C1OC23CCCCC2C(C#N)(C#N)C1(C#N)C(=N)O3 (stereo not drawn) the TGI was 80.6 µM.

system: MDA-N; assay: inhibition of tumour cell growth, NCI panel, 48 h

CCC(C)(C)/C(CC(O)(C(F)(F)F)C(F)(F)F)=N\O and NC(CCCCP(=O)(O)O)C(=O)O (stereo not drawn) cannot be ordered by TGI: over 100 µM for the first, over 100 µM for the second.

Going from N#CSC#Cc1ccc(C#CSC#N)cc1 to O=C(CC(=O)Nc1cccc(C(=O)O)c1)Nc1cccc(C(=O)O)c1, the TGI rises from 34.5 µM to over 100 µM.

Cc1cc(C)c(S(=O)(=O)N2CCCN(S(=O)(=O)c3c(C)cc(C)cc3C)OCCCON(S(=O)(=O)c3c(C)cc(C)cc3C)CCCN(S(=O)(=O)c3c(C)cc(C)cc3C)OCCCO2)c(C)c1 and O=C(NCCCCCCNC(=O)c1cccc2ccccc12)Nc1cccc2ccccc12 cannot be ordered by TGI: over 100 µM for the first, over 100 µM for the second.

Work on CC(C)C1OC23CCCCC2C(C#N)(C#N)C1(C#N)C(=N)O3 (stereo not drawn) yielded a TGI of 32.7 µM.

system: MOLT-4 leukemia; assay: inhibition of tumour cell growth, NCI panel, 48 h

CCC(C)(C)/C(CC(O)(C(F)(F)F)C(F)(F)F)=N\O and NC(CCCCP(=O)(O)O)C(=O)O (stereo not drawn) cannot be ordered by TGI: over 100 µM for the first, over 100 µM for the second.

N#CSC#Cc1ccc(C#CSC#N)cc1 and O=C(CC(=O)Nc1cccc(C(=O)O)c1)Nc1cccc(C(=O)O)c1 cannot be ordered by TGI: over 100 µM for the first, over 100 µM for the second.

Cc1cc(C)c(S(=O)(=O)N2CCCN(S(=O)(=O)c3c(C)cc(C)cc3C)OCCCON(S(=O)(=O)c3c(C)cc(C)cc3C)CCCN(S(=O)(=O)c3c(C)cc(C)cc3C)OCCCO2)c(C)c1 and O=C(NCCCCCCNC(=O)c1cccc2ccccc12)Nc1cccc2ccccc12 cannot be ordered by TGI: over 100 µM for the first, over 100 µM for the second.

For CC(C)C1OC23CCCCC2C(C#N)(C#N)C1(C#N)C(=N)O3 (stereo not drawn), the TGI was over 100 µM.
